# Assays:
# Type in all cases: cell-based, human
# [1] = system: JJN-3 multiple myeloma cells; conditions: JJN-3, 10 μM
# Text: Minor effects on the proliferation of the IH-1 and RPMI 8226 cell lines are seen. […] The number of viable cells was detected based on quantitation of ATP by luminescent signal in correlation to a standard curve prepared for each cell line. Results are based on 3-5 biological replicates for each condition, error bars show standard deviation of mean.
# Multiple myeloma cells JJN-3 (DSMZ (Germany) no. ACC 541), ANBL-6 (Cellosaurus accession number CVCL_5425, obtained from Dr Diane Jelinek, Mayo Clinic, Rochester, Minn.), INA-6 (Cellosaurus accession number CVCL_5209, obtained from Dr M. Gramatzki, University of Erlangen-Nurnberg, Erlangen, Germany), RPMI-8226 (ATCC CCL-155), and IH-1 (Cellosaurus accession number CVCL_WZ44, established from the pleural effusion of a myeloma patient by Myeloma research group, IKOM, NTNU, Trondheim, Norway) were grown in RPMI-1640 (Sigma-Aldrich Norway, Oslo, Norway) supplemented with 100 nM penicillin/streptomycin and 10% FCS, and for ANBL-6, IH-1 and INA-6 cells 2 ng/ml recombinant IL-6 (Gibco, Thermo Fisher Scientific, Waltham, Mass., USA). Murine multiple myeloma Vk*MYC cells were obtained from M.D. Leif Bergsagel (Mayo Clinic, Richester, Minn., USA) and cultured in RPMI-1640 supplemented with 2% human serum (B^+, The blood bank, St Olav's Hospital, Trondheim, Norway), 100 nM penicillin/streptomycin, L-Glutamine (2 mM) and recombinant IL-6 (1 ng/ml). HEK293T (ATCC CRL-3216) were cultured in DMEM with 10% FCS. THP-1 TRAM knockout (KO) and TLR4 KO cell lines, and matching lentivirally transduced control cell lines, were differentiated in the same way as wild type (WT) THP-1. TRAM KO THP-1 cell line is described in Yurchenko et al. (supra).
# To evaluate the potential impact of the P7 peptide on proliferation of tumour cells of lymphoid origin, we performed a CellTiter-Glo Luminescent Cell Viability Assay to address proliferation of several multiple myeloma (MM) cell lines. […]
# SW480 cells = test: Proliferation of SW480 colon cancer cells; conditions: 15 μM, 48 h, with or without LPS 100 ng/ml
# Procedure: SW480 cells were seeded and incubated in medium alone or supplemented with water, 15 μM penetratin, 15 μM P7-Pen or 15 μM P7-N4-Pen. Under each condition cells were incubated both without LPS and with 100 ng/ml LPS. Cells were incubated for 48 hours then counted. […] The presence of LPS made no difference to the effect of the peptides on proliferation. Results are based on 3 biological replicates, error bars show standard deviation of mean.
# SW480 (ATCC CCL-228) and Jurkat (ATCC Clone E6-1; TIB-152) cells were cultured in RPMI 1640 (Sigma-Aldrich, Schnelldorf, Germany) supplemented with 10% heat-inactivated FCS, penicillin/streptomycin (Life Technologies) and 20 mM L-Glutamine. THP-1 cells (ATCC TIB-202) were cultured in RPMI-1640 (high-glucose, ATCC) supplemented with 10% heat inactivated foetal calf serum (FCS), 100 nM penicillin/streptomycin and 5 μM β-mercaptoethanol (Sigma). THP-1 cells were differentiated with 60 ng/ml phorbol 12-myristate 13-acetate (PMA, Sigma) for 72 h, followed by 24 or 48 h in medium without PMA.
# The peptides were tested against the SW480 cell line in the presence and absence of LPS.
# S. aureus particles = test: Whole blood assay, S. aureus particle stimulation; conditions: 20 μM, 4 h
# Procedure: Whole blood samples from healthy donors were pre-treated with 20 μM peptides for 1 h then stimulated with TLR ligands for 4 h before plasma collection. Results are for at least 6 donors. The Wilcoxon matched-pairs signed rank test was used for statistical analysis between 2 groups in Prizm 8.2.1. In each graph, circles indicate whole blood pre-treated with water, squares indicate blood pre-treated with control peptide (average for treatment with Pen and C3-Pen), and triangles indicate pre-treatment with P7-Pen.
# To evaluate the effect of peptides in an ex vivo system, a human whole blood model was used. Peripheral venous blood was drawn from 6 healthy donors into sterile polypropylene tubes (Thermo Scientific™ Nunc™ Biobanking and Cell Culture Cryogenic Tubes) containing the anti-coagulant Lepirudin (Refludan®; Celgene). Peptide solutions were made by diluting peptide stocks in DPBS (Dulbecco's Phosphate Buffered Saline with MgCl2 and CaCl2; Sigma-Aldrich) to obtain a final concentration of 140 μM. Peptide solution or DPBS was distributed in equal volume (50 μL) to 1.8 mL sterile polypropylene tubes (Thermo Scientific™Nunc™ Biobanking and Cell Culture Cryogenic Tubes). 250 μL whole blood was then added to the 1.8 mL tubes containing peptide solution or DPBS, and incubated at 37° C. under constant rotation for 1 h (concentration of peptides for pre-incubation: 23.3 μM). […]
# THP-1 TRAM KO cells = test: qPCR of LPS-mediated cytokine expression in THP-1 TRAM KO cells; conditions: 10 μM, LPS 100 ng/ml 2 or 4 h
# Procedure: Control THP-1 CRISPR cells and TRAM KO cells were pre-treated with 10 μM peptides—control peptides with amino acid substitutions (C3-Pen) or TRAM-targeting peptide Pep7-Penetratin (P7-Pen)—for 30 min before stimulation with LPS (100 ng/ml) for 2 or 4 h. Cells were lysed with Qiazol, followed by RNA isolation and quantitative PCR analysis of cytokine mRNA expression.
# In human cells (THP-1 cell line) TRAM expression was not required for TLR4-mediated IL-1β or TNF expression in response to LPS or E. coli particles (FIG. 21, lower panels). P7-Pen was as effective in reducing expression of pro-inflammatory cytokines in THP-1 TRAM KO cells as in control cells (FIG. 22).
substance,measurement,setting,value
Ac-ITVAASVTLTGRQIKIWFQNRRMKWKK-NH2 [Peptide P7-A4-Pen],cell proliferation,[1]; 48 h,strongly inhibited cell proliferation
same,cell death,[1]; 48 h (LDH assay not shown),induced cell death
Ac-ITVYASVTLTGRQIKIWFQNRRMKWKK-NH2 [Peptide P7-Pen],effect on proliferation of SW480 cells,SW480 cells,a degree of anti-proliferative effect
same,S. aureus-mediated IFNβ secretion,S. aureus particles,significantly downregulated
same,"S. aureus-mediated TNF, IL-6 and IL-1β pro-inflammatory cytokine secretion",S. aureus particles,significantly decreased
same,reducing expression of pro-inflammatory cytokines in THP-1 TRAM KO cells versus control cells,THP-1 TRAM KO cells,as effective

# — patent US20230220047A1, “PEPTIDES FOR TREATMENT OF SEPSIS AND CANCER” (NORWEGIAN UNIVERSITY OF SCIENCE AND TECHNOLOGY (NTNU), priority 2020, published 2023)
